We go through two compounds from ChEMBL document CHEMBL2203186, “T-type Ca2+ channel blocker, KYS05047 induces G1 phase cell cycle arrest by decreasing intracellular Ca2+ levels in human lung adenocarcinoma A549 cells” (Bioorg Med Chem Lett, 2012).

Data set [1] relates to A549. Put plainly: Cytocidal activity in human A549 cells at 6 to 8 uM by trypan Blue assay. The class given is functional, cell-based.
Data set [2] concerns A549. As to the kind of experiment: Effect on Cyclin E protein level in human A549 cells at 7 uM after 3 to 24 hrs by Western blot method. Format: functional, cell-based. For orientation: A western blot detects proteins with antibodies after separation by electrophoresis.
In data set [3] the test system is A549. As to the kind of experiment: Upregulation of p27Kip1 protein level in human A549 cells at 7 uM by Western blot method. Format: functional, cell-based. Conditions: TDE = time-dependent effect.
In data set [4] the test system is A549. As to the kind of experiment: Cell cycle arrest in human A549 cells assessed as reduction in cells at S phase at 2 to 7 uM after 24 hrs using propidium iodide by flow cytometry. The class given is functional, cell-based.
Data set [5] deals with A549. Put plainly: Upregulation of p27Kip1 protein level in human A549 cells assessed as inhibition of AKT activity at 7 uM by Western blot method. The class given is functional, cell-based. As to conditions: TDE = time-dependent effect.
The subject of data set [6] is A549. Put plainly: Growth inhibition of human A549 cells at 6 to 48 hrs by trypan Blue assay. Format: functional, cell-based.
Data set [7] has as its system A549. As to the kind of experiment: Inhibition of T-type Ca2+ channel in human A549 cells assessed as reduction in intracellular ca2+ level at 3 to 8 uM after 108 mins by Fluo-4 staining method. The class given is cell-based.
The test system of data set [8] is A549. As to the kind of experiment: Upregulation of p27Kip1 protein level in human A549 cells assessed as inhibition of CDK4-mediated Rb phosphorylation at 7 uM by Western blot method. Conditions: TDE = time-dependent effect. Format: functional, cell-based.
Data set [9] has as its system A549. Put plainly: Antitumor activity against human A549 cells xenografted in BALB/c nu/nu mouse assessed as tumor growth inhibition at 2 to 10 mg/kg, po administered 5 times a week for 21 days. Format: functional, organism-based.
The test system of data set [10] is A549. As to the kind of experiment: Cell cycle arrest at G1 phase in human A549 cells at 7 uM after 24 hrs using propidium iodide by flow cytometry in presence of KCl. The class given is functional, cell-based. Background: Flow cytometry measures light scatter and fluorescence of single cells or particles in a stream.
For data set [11], the system named is A549. Put plainly: Upregulation of p27Kip1 protein level in human A549 cells assessed as inhibition of CDK2 activity at 7 uM by Western blot method. Format: functional, cell-based. As to conditions: TDE = time-dependent effect.
The test system of data set [12] is A549. As to the kind of experiment: Upregulation of p27Kip1 protein level in human A549 cells assessed as inhibition of mTOR activity at 7 uM by Western blot method. Format: functional, cell-based. Conditions: TDE = time-dependent effect.
The subject of data set [13] is A549. Put plainly: Cell cycle arrest at G1 phase in human A549 cells at 7 uM after 24 hrs using propidium iodide by flow cytometry. Format: functional, cell-based.
Data set [14] relates to A549. Put plainly: Inhibition of T-type Ca2+ channel in human A549 cells assessed as reduction in intracellular ca2+ level at 3 to 8 uM after 108 mins by Fluo-4 staining method in presence of KCl. The class given is cell-based.
Data set [15] has as its system A549. As to the kind of experiment: Downregulation of Cdk2 protein level in human A549 cells at 7 uM after 3 to 24 hrs by Western blot method. The class given is functional, cell-based.
Data set [16] has as its system A549. As to the kind of experiment: Effect on Cyclin D1 protein level in human A549 cells at 7 uM after 3 to 24 hrs by Western blot method. The class given is functional, cell-based.
The test system of data set [17] is A549. Put plainly: Downregulation of Cdk4 protein level in human A549 cells at 7 uM after 3 to 24 hrs by Western blot method. The class given is functional, cell-based.
Data set [18] relates to A549. As to the kind of experiment: Growth inhibition of human A549 cells at 4 to 12 uM by trypan Blue assay. The class given is functional, cell-based. As to conditions: TDE = time-dependent effect.
The test system of data set [19] is A549. Put plainly: Effect on p21Waf1 protein level in human A549 cells at 7 uM after 3 to 24 hrs by Western blot method. Format: functional, cell-based.
The subject of data set [20] is Mus musculus. As to the kind of experiment: Toxicity in BALB/c nu/nu mouse assessed as change in body weight at 20 mg/kg, ip administered twice a week for 21 days. The class given is organism-based. Further details: dose 20 mg/kg, route intraperitoneal. As to conditions: in vivo, 504 h.
Data set [21] has as its system A549. As to the kind of experiment: Antitumor activity against human A549 cells xenografted in BALB/c nu/nu mouse assessed as tumor growth inhibition at 20 mg/kg, ip administered twice a week for 21 days. Format: functional, organism-based. On the set-up: dose 20 mg/kg.
Data set [22] has as its system Mus musculus. As to the kind of experiment: Toxicity in BALB/c nu/nu mouse assessed as mortality at 20 mg/kg, ip administered twice a week for 21 days. The class given is organism-based. On the set-up: dose 20 mg/kg, route intraperitoneal. Conditions: in vivo, 504 h.

Activity calls are given as the source filed them. The rule behind the calls is not given here.

In the case of `CC(C)(C)OC(=O)NCCCCCN1C(Nc2ccc(-c3ccccc3)cc2)=Nc2ccccc2C1CC(=O)NCc1ccccc1` (configuration not stated), the outcome in data set [1], in data set [2], in data set [10], in data set [16] and in data set [19] was inactive. For the same compound, the Activity entry in data set [3] was “tde”. The result in [4], in data set [13], in data set [15] and in data set [17] was Active. The inhibition result in data set [5], in [8], in data set [11] and in [12] was “tde” each time. Besides, the entries for the “growth inhibition (GI)” value in [6] and in data set [18] were “Dose-dependent effect” and “tde”, respectively. The inhibition result in data set [7] was “Active”. In addition, the TGI entry in data set [9] is “Active”. The inhibition result in data set [14] was “inactive”.

On to `CC(=O)O[C@H]1C(=O)[C@@]2(C)[C@H]([C@H](OC(=O)c3ccccc3)[C@]3(O)C[C@H](OC(=O)[C@H](O)[C@@H](NC(=O)c4ccccc4)c4ccccc4)C(C)=C1C3(C)C)[C@]1(OC(C)=O)CO[C@@H]1C[C@@H]2O` [PACLITAXEL], for which the Activity entry in data set [20] and in data set [22] was “Non-toxic” throughout. Moreover, the TGI entry in data set [21] is “Active”.
